Legend:
[1] = biological target: T1, ligand binding domain of human RORγ (Homo sapiens, UniProt P51449); test: RORγ Reporter Assay (Gal4); assay type: cell-based; details: for inhibition at 1 µM: HEK-293T, 1 μM test compound, HEK293t RORγ reporter cells, 24 hour, read-out: Gal4 activity range @ 1 μM (% inhibition); for Gal4 activity range @ 0.1 μM (% inhibition): RORγ Reporter Assay (Gal4), HEK293t reporter cells, compound at 0.1 μM, values are activity range bounds
T1 construct: host or cells: HEK293t
T1 sequence (P51449 269-508 limits assumed): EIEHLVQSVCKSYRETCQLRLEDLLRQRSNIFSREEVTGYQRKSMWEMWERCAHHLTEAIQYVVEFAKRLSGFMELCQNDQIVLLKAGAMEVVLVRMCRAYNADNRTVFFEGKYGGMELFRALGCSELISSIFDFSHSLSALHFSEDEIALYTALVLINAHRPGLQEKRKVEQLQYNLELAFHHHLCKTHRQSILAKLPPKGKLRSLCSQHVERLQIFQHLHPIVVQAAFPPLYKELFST
Method: The activity of the compounds was evaluated using a Fluorescence Polarization (FP) Assay and, RORγ Reporter assay (also referred to as Gal4 assay). The FP assay is an in vitro assay monitoring binding within the ligand binding pocket. The RORγ and the Th17 assays (another suitable assay) are both cell-based assays monitoring functional activity of the compound assayed.
RORγ Reporter Assay (Gal4)
Cell-based RORγ functional assays were performed using a commercially available assay product (INDIGO Biosciences, State College, Pa., USA; product # IB04001). The RORγ reporter cells are HEK293t cells transfected with one vector that provides high level constitutive expression of a hybrid protein comprised of the yeast Gal4-DNA binding domain fused to the ligand binding domain of human RORγ, and a second vector comprising the firefly luciferase cDNA functionally linked to the upstream activation sequence (UAS) of yeast Gal4. A suspension of RORγ Reporter Cells was prepared using the protocol and culture medium provided in the kit product, and 100 μl of the Reporter Cell suspension was then dispensed into wells of a white, collagen-treated, 96-well assay plate. Concentrated stocks of test compounds were prepared in DMSO, then further diluted using media provided in the kit to generate ‘2×-concentration’ treatment media. 100 μl of medium for each respective treatment concentration dispensed into triplicate assay wells, thereby combining with the reporter cells. All media formulations contained 10% charcoal stripped Fetal Bovine Serum, but are otherwise proprietary to INDIGO Biosciences. Final treatment concentrations for each test compound were 1,000 nM and 100 nM, each with 0.1% residual DMSO. Separate control treatments were media supplemented with vehicle only (0.1% DMSO) to determine the constitutive level of RORγ activity in the reporter cells, and the reference inverse-agonist ursolic acid (f.c. 6,000 nM to 8.2 nM in 3-fold decrements) to establish a positive control inverse-agonist dose response. Assay plates were placed in a 37° C., 5% CO2, 85% humidity incubator for 24 hour. Treatment media were then discarded, 100 μl of luciferase detection reagent was added to each well, and relative light units (RLUs) were quantified from each assay well using a plate reading luminometer. Values of average RLU+/−standard deviation were computed for all treatment sets, followed by the calculations of fold-reduction: [Average RLUVehicle/Average RLUTest Cmpd]. Percent-reduction of RORγ activity in response to respective test compound treatments was calculated: [100*(1−[Ave RLUTest Cmpd/Ave RLUVehicle)] where the theoretical minimum reduction (0% reduction) derives from Vehicle treatment only, no treatment compound. In some aspects it may be of interest to provide compounds with selective modulation of RORγ for example compounds that are selective to RORγ over RORα, compounds that are selective for RORγ versus RORPβ, and compounds that are selective for RORγ versus BOTH RORα and RORPβ. It may also be of interest to provide compounds that are selective for RORγ versus further nuclear hormone receptors such as CAR1, FXR, GR, LXRα, LXRβ, PPARα, PXR, RARα, RXRα, TRα, VDR. It is apparent to those skilled in the art that these nuclear hormone receptors are merely examples, and that selectivity against other nuclear receptors may also be of interest. It may for example be of interest to provide compounds that modulate RORγ and one or more further nuclear hormone receptors, as well as compounds that modulate both RORγ and RORα, or RORγ and RORβ. It may also be of interest to provide compounds that modulate RORγ and BOTH RORα and RORP, as well as compounds that modulate both RORγ and one or more further nuclear hormone receptors such as CAR1, FXR, GR, LXRα, LXRβ, PPARα, PXR, RARα, RXRα, TRα, VDR. It is apparent to those skilled in the art that these nuclear hormone receptors are merely examples, and that modulation of even other nuclear receptors may also be of interest. […]

[2] = biological target: T2, human RORγt (Ligand Binding Domain) (Homo sapiens, UniProt P51449); test: Fluorescence Polarization (FP) Assay; details: 100 nM human RORγt LBD, 25 nM TAMRA probe, values are activity range bounds
T2 construct: purchased Crelux (Planegg, Germany) batch no PC5032-1
T2 sequence (P51449 269-508 limits assumed): T1 sequence (P51449 269-508 limits assumed)
Procedure, shortened: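 In vitro fluorescence polarization binding assay on the RORγt ligand-binding pocket. A TAMRA-labelled RORγt ligand probe (MW 910 g/mol) was used, with DMSO as negative control.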

| inhibition at 1 µM [1] [%] | Gal4 activity range @ 0.1 μM (% inhibition) [1] [% inhibition] | IC50 [2] [nM] | SMILES |
| --- | --- | --- | --- |
| > 80 | >50 | < 500 | N#CCc1ccc(CNc2ncnc(N(Cc3ccc(C(F)(F)F)cc3)C3CC3)c2F)cc1 [Example A14, 2-[4-[[[6-[cyclopropyl-[[4-(trifluoromethyl)phenyl]methyl]amino]-5-fluoro-pyrimidin-4-yl]amino]methyl]phenyl]acetonitrile] |
| > 80 | >20 | < 500 | NC(=O)Cc1ccc(CNc2ncnc(N(Cc3ccc(C(F)(F)F)cc3)C3CCC3)c2F)cc1 [Example A15, 2-[4-[[[6-[cyclobutyl-[[4-(trifluoromethyl)phenyl]methyl]amino]-5-fluoro-pyrimidin-4-yl]amino]methyl]phenyl]acetamide] |
| > 20 | >0 | < 500 | COC(=O)CC(c1ccc(C(F)(F)F)cc1)N(c1ncnc(NCc2ccc(CC(N)=O)cc2)c1F)C1CC1 (stereo not drawn) [Example A16, methyl 3-[[6-[[4-(2-amino-2-oxo-ethyl)phenyl]methylamino]-5-fluoro-pyrimidin-4-yl]-cyclopropyl-amino]-3-[4-(trifluoromethyl)phenyl]propanoate] |
| – | – | < 2000 | O=C(O)CC1(Nc2ncnc(N(Cc3ccc(C(F)(F)F)cc3)C3CC3)c2F)CCOCC1 [Example A183, 2-[4-[[6-[cyclopropyl-[[4-(trifluoromethyl)phenyl]methyl]amino]-5-fluoro-pyrimidin-4-yl]amino]tetrahydropyran-4-yl]acetic acid] |
| – | – | < 10000 | O=C(O)C(CNc1ncnc(N(Cc2ccc(C(F)(F)F)cc2)C2CC2)c1F)C1CCOCC1 (stereo not drawn) [Example A184, 3-[[6-[cyclopropyl-[[4-(trifluoromethyl)phenyl]methyl]amino]-5-fluoro-pyrimidin-4-yl]amino]-2-tetrahydropyran-4-yl-propanoic acid] |
| – | – | < 10000 | O=C(O)C(CNc1ncnc(N(Cc2ccc(C(F)(F)F)cc2)C2CC2)c1F)CC1CCOCC1 (stereo not drawn) [Example A185, 2-[[[6-[cyclopropyl-[[4-(trifluoromethyl)phenyl]methyl]amino]-5-fluoro-pyrimidin-4-yl]amino]methyl]-3-tetrahydropyran-4-yl-propanoic acid] |

The remaining lines, values behind:

| SMILES | inhibition at 1 µM [1] [%] | Gal4 activity range @ 0.1 μM (% inhibition) [1] [% inhibition] | IC50 [2] [nM] |
| --- | --- | --- | --- |
| Cc1ccc(CNc2ncnc(N(Cc3ccc(C(F)(F)F)cc3)C3CC3)c2F)cn1 [Example A1, N4-cyclopropyl-5-fluoro-N6-[(6-methyl-3-pyridyl)methyl]-N4-[[4-(trifluoromethyl)phenyl]methyl] pyrimidine-4,6-diamine] | > 80 | >20 | < 1000 |
| NC(=O)Cc1ccc(CNc2ncnc(N(Cc3ccc(C(F)(F)F)cc3)C3CC3)c2F)cc1 [Example A2, 2-[4-[[[6-[cyclopropyl-[[4-(trifluoromethyl)phenyl]methyl]amino]-5-fluoro-pyrimidin-4-yl]amino]methyl]phenyl]acetamide] | > 80 | >80 | < 500 |
| CC(c1ccc(C(F)(F)F)cc1)N(c1ncnc(NCc2ccc(CC(N)=O)cc2)c1F)C1CC1 (stereo not drawn) [Example A3, 2-[4-[[[6-[cyclopropyl-[1-[4-(trifluoromethyl)phenyl]ethyl]amino]-5-fluoro-pyrimidin-4-yl]amino]methyl]phenyl]acetamide] | > 80 | >50 | < 500 |
| NC(=O)Cc1ccc(CNc2ncnc(N(Cc3ccc(C(F)(F)F)cc3)C3CCOC3)c2F)cc1 (stereo not drawn) [Example A4, 2-[4-[[[5-fluoro-6-[tetrahydrofuran-3-yl-[[4-(trifluoromethyl)phenyl]methyl]amino]pyrimidin-4-yl]amino]methyl]phenyl]acetamide] | > 50 | >0 | < 2000 |
| OC1(CNc2ncnc(N(Cc3ccc(C(F)(F)F)cc3)C3CC3)c2F)CCOC1 (stereo not drawn) [Example A5, 3-[[[6-[cyclopropyl-[[4-(trifluoromethyl)phenyl]methyl]amino]-5-fluoro-pyrimidin-4-yl]amino]methyl]tetrahydrofuran-3-ol] | > 80 | >20 | < 1000 |
| NC(=O)Cc1ccc(CNc2ncnc(N(Cc3ccc(OC(F)(F)F)cc3)C3CC3)c2F)cc1 [Example A6, 2-[4-[[[6-[cyclopropyl-[[4-(trifluoromethoxy)phenyl]methyl]amino]-5-fluoro-pyrimidin-4-yl]amino]methyl]phenyl]acetamide] | > 80 | >80 | < 500 |
| O=S1(=O)CCC(O)(CNc2ncnc(N(Cc3ccc(C(F)(F)F)cc3)C3CC3)c2F)CC1 [Example A8, 4-[[[6-[cyclopropyl-[[4-(trifluoromethyl)phenyl]methyl]amino]-5-fluoro-pyrimidin-4-yl]amino]methyl]-1,1-dioxo-thian-4-ol] | > 80 | >50 | < 500 |
| O=S(=O)(NC1CC1)c1ccc(CNc2ncnc(N(Cc3ccc(C(F)(F)F)cc3)C3CC3)c2F)cc1 [Example A9, N-cyclopropyl-4-[[[6-[cyclopropyl-[[4-(trifluoromethyl)phenyl]methyl]amino]-5-fluoro-pyrimidin-4-yl]amino]methyl]benzenesulfonamide] | > 80 | >20 | < 500 |
| CC(=O)N1CCC(CNc2ncnc(N(Cc3ccc(C(F)(F)F)cc3)C3CC3)c2F)CC1 [Example A11, 1-[4-[[[6-[cyclopropyl-[[4-(trifluoromethyl)phenyl]methyl]amino]-5-fluoro-pyrimidin-4-yl]amino]methyl]-1-piperidyl]ethanone] | > 80 | >50 | < 500 |
| Fc1c(NCC2CCOCC2)ncnc1N(Cc1ccc(C(F)(F)F)cc1)C1CC1 [Example A12, N4-cyclopropyl-5-fluoro-N6-(tetrahydropyran-4-ylmethyl)-N4-[[4-(trifluoromethyl)phenyl]methyl] pyrimidine-4,6-diamine] | > 80 | >20 | < 1000 |
| NC(=O)Cc1ccc(CNc2ncnc(N(C3CC3)C(c3ccc(C(F)(F)F)cc3)C3CC3)c2F)cc1 (stereo not drawn) [Example A13, 2-[4-[[[6-[cyclopropyl-[cyclopropyl-[4-(trifluoromethyl)phenyl]methyl]amino]-5-fluoro-pyrimidin-4-yl]amino]methyl]phenyl]acetamide] | > 80 | >20 | < 500 |

Source: patent US10683293B2, “Optionally fused heterocyclyl-substituted derivatives of pyrimidine useful for the treatment of inflammatory, metabolic, oncologic and autoimmune diseases” (NUEVOLUTION A/S, priority 2014, dated 2020)
